This is an account of results in patent publication US11548900B2, “Oxazino-quinazoline and oxazino-quinoline type compound, preparation method and uses thereof” (BEIJING SCITECH-MQ PHARMACEUTICALS LIMITED, priority 2018, dated 2023).

In general, IC50 refers to the concentration needed to halve the response being measured.

One test has as its target EGFR kinase (Homo sapiens (Human), UniProt P00533). Kind of test: Inhibition of EGFR kinase activity (ULight-labeled JAK-1 (Tyr1023) peptide substrate). Type of test: biochemical. As to conditions: EGFR kinase 0.35 nM, ATP 150 μM, 2 hours. In a few lines:
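TR-FRET kinase assay: 0.35 nM EGFR, 150 μM ATP, 100 nM substrate, 2 h at room temperature in the dark after 5 min enzyme-compound preincubation, 1% DMSO. Compounds tested as 11-point 3-fold series, 2.5 μM to 0.042 nM final, duplicate; IC50 from 665/615 nm ratio-based inhibition.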

The next test concerns HCC827 cells. As to the kind of experiment: Inhibition of cell proliferation, HCC827 (CCK-8, 72 h). Type of test: cell-based. As to conditions: 72 h incubation. How it is done:
The assay for the inhibition of cell proliferation by small molecular compounds was carried out using the method as follows:
1. 600 μL pancreatin was added to a T75 cell culture flask, which was digested in a 37° C. incubator for about 1 min before 5 mL of DMEM complete culture solution was added, blew evenly, transferred to a 15 mL centrifuge tube, and centrifuged at 1000 rpm for 4 min;
2. The supernatant was removed and 5 mL DMEM complete culture solution was added, blew evenly, and 10 μL cell suspension was taken and mixed with 10 μL 0.4% Trypan Blue, and counted using a cell counter;
3. BT474 and HCC827 cell lines were seeded in 96-well plates at a cell density of 10,000 and 3000 cells/well/80 μL, respectively, and cultured overnight. Only sterile water was added to the 36 wells on the periphery of the 96-well plate without adding cells, and only the 60 wells in the center of the 96-well plate were used for cell assays and controls;
4. Dilution of compounds: the compounds were diluted with a 3-fold dilution to make 10 concentrations in total with an initial concentration of 10 mM;
5. 20 μL of different compounds with different concentrations were added to each well, and 20 μL of complete culture solution was added to the remaining wells. The final concentration of DMSO in each well is 0.25%;
6. After 72 h of incubation, 10 μL CCK-8 reagent was added to each well, and incubated at 37° C. for 1-2 h; and the OD value was read at 450 nm;
7. Cell survival rate (%)=[(As−Ab)/(Ac−Ab)]*100%
As: Assay well (medium containing cell, CCK-8, compound)
Ac: Control well (medium containing cell, CCK-8)
Ab: Blank well (CCK-8, medium without cell and compound)
8. The value was imported into Graphpad Prism5 software for the calculation of IC50s (compound concentration at which 50% maximum survival rate is observed).

A further test concerns BT474 cells. As to the kind of experiment: Inhibition of cell proliferation, BT474 (CCK-8, 72 h). Type of test: cell-based. In a few lines: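 BT474 and HCC827 seeded at 10,000 and 3000 cells/well respectively, cultured overnight, then exposed to 10-point 3-fold compound dilutions (top stock 10 mM; 0.25% DMSO final) for 72 h. Viability by CCK-8, OD450; survival normalised to untreated and cell-free blanks, IC50 from curve fit.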

A further test addresses HER2 kinase (Homo sapiens (Human), UniProt P04626). As to the kind of experiment: Inhibition of HER2 kinase activity (ULight-labeled PolyGT substrate). As to conditions: HER2 kinase 10 nM, ATP 10 μM, 2 hours. Type of test: biochemical. Summed up: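 Eleven-point 3-fold dilutions (0.042 nM–2.5 μM final, 1% DMSO) tested in duplicate against 10 nM HER2 with 100 nM ULight-labelled PolyGT and 10 μM ATP. Reaction ran 2 h at RT after 5 min pre-incubation; 665/615 nm TR-FRET ratio used to derive inhibition and IC50.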

Where [1] appears, read: Homo sapiens, BT-474, 72 h incubation.

SMILES strings stand for the structures. Where only a bound is given, the exact number is not on record here.

Chain of EGFR kinase (P00533 25-1210): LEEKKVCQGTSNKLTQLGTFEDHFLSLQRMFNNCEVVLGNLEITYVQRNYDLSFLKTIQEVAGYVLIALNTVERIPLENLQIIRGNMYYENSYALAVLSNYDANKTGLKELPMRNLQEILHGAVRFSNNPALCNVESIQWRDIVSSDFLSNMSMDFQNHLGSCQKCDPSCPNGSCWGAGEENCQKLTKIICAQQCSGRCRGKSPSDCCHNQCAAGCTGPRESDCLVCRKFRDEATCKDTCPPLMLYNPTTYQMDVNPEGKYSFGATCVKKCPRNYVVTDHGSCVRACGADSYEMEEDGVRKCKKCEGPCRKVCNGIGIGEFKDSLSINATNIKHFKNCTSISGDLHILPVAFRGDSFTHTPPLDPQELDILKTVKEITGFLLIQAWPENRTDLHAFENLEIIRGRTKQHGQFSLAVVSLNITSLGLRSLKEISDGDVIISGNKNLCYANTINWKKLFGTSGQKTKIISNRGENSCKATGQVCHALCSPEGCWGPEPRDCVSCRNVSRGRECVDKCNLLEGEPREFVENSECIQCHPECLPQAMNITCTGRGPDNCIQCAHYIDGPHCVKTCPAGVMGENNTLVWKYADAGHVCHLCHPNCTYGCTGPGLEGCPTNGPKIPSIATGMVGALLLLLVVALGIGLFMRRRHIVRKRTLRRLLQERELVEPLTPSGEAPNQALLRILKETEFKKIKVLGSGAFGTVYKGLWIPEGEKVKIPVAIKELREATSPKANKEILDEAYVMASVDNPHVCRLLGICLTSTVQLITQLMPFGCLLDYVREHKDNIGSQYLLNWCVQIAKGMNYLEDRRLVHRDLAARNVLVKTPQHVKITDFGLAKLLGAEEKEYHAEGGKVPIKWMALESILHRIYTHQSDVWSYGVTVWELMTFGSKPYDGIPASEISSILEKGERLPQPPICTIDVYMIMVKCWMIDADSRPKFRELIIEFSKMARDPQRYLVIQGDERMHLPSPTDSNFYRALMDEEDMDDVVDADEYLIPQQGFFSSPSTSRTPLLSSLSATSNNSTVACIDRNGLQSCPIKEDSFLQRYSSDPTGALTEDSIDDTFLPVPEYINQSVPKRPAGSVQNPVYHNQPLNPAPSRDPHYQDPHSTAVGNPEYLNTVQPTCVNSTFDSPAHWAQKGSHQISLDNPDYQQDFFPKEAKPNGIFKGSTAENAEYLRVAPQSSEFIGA
Chain of HER2 kinase (P04626 23-1255): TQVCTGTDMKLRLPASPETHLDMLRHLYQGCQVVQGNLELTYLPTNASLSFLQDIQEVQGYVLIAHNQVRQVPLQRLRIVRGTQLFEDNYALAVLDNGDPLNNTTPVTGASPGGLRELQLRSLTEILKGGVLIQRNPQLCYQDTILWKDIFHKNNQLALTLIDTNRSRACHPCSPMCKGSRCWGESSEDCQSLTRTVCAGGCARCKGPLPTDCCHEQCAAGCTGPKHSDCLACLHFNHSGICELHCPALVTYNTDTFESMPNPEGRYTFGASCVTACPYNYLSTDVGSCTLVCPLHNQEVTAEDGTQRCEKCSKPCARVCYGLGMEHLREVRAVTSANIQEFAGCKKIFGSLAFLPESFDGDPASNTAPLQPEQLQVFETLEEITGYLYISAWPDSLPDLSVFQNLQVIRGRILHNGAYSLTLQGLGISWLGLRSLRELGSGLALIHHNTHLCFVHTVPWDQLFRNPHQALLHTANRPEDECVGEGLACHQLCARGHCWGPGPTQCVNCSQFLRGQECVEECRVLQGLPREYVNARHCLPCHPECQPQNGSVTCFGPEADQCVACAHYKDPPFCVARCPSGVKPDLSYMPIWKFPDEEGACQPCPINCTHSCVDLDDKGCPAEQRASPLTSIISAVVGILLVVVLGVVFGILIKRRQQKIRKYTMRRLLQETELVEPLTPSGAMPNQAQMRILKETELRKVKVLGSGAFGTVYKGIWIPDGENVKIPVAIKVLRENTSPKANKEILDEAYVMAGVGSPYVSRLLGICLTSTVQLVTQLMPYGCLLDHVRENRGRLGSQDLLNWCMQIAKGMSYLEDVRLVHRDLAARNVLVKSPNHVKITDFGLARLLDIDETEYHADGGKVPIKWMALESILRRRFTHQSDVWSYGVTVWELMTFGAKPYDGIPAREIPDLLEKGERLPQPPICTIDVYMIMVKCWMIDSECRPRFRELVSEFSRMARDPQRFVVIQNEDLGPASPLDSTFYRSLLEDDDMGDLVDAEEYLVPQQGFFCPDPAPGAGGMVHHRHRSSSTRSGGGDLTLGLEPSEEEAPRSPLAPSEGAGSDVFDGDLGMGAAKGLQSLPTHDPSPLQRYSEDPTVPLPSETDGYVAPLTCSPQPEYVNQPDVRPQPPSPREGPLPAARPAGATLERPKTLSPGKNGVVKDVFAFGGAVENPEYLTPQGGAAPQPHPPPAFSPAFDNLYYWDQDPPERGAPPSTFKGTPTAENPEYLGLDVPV

Take `CN(C)C/C=C/C(=O)N1CCOc2c1ccc1ncnc(Nc3ccc(Oc4ccccc4)c(Cl)c3)c21` [Example 59, (E)-4-(dimethylamino)-1-(10-((3-chloro-4-phenoxyphenyl)amino)-2,3-dihydro-4H-[1,4]oxazino[2,3-f]quinazolin-4-yl)but-2-en-1-one]: the IC50 is ≤ 50 nM on EGFR kinase, 500 to 5000 nM in the test on HCC827 cells (Homo sapiens), ≤ 50 nM in the test with BT474 cells (setting [1]) and ≤ 50 nM on HER2 kinase.

In the case of `CN(C)C/C=C/C(=O)N1CCOc2c1ccc1ncnc(Nc3ccc(OCc4ccc(F)cc4)cc3)c21` [Example 60, (E)-4-(dimethylamino)-1-(10-((4-((4-fluorobenzyl)oxy)phenyl)amino)-2,3-dihydro-4H-[1,4]oxazino[2,3-f]quinazolin-4-yl)but-2-en-1-one], the concentration for half-maximal inhibition (IC50) against EGFR kinase was ≤ 50 nM; with HCC827 cells (Homo sapiens), 500 to 5000 nM; in the test on BT474 cells (setting [1]), ≤ 50 nM; against HER2 kinase, ≤ 50 nM.

For `CN(C)C/C=C/C(=O)N1CCOc2c1ccc1ncnc(Nc3ccc(OCc4cccc(F)c4)cc3)c21` [Example 61, (E)-4-(dimethylamino)-1-(10-((4-((3-fluorobenzyl)oxy)phenyl)amino)-2,3-dihydro-4H-[1,4]oxazino[2,3-f]quinazolin-4-yl)but-2-en-1-one], the IC50 is ≤ 50 nM at EGFR kinase, > 5000 nM in the test with HCC827 cells (Homo sapiens), ≤ 50 nM in the test on BT474 cells (setting [1]) and ≤ 50 nM against HER2 kinase.

With `CN(C)C/C=C/C(=O)N1CCOc2c1ccc1ncnc(Nc3ccc(OCc4cccc(C(F)(F)F)c4)cc3)c21` [Example 62], the IC50 was ≤ 50 nM on EGFR kinase, > 5000 nM with HCC827 cells, 50 to 500 nM in the test with BT474 cells (72 h incubation) and ≤ 50 nM against HER2 kinase.

Take `CN(C)C/C=C/C(=O)N1CCOc2c1ccc1ncnc(Nc3ccc(OCc4ccccn4)cc3)c21` [Example 63, (E)-4-(dimethylamino)-1-(10-((4-(pyridin-2-ylmethoxy)phenyl)amino)-2,3-dihydro-4H-[1,4]oxazino[2,3-f]quinazolin-4-yl)but-2-en-1-one]: the half-inhibitory concentration (IC50) at EGFR kinase is 50 to 500 nM; in the test on HCC827 cells (Homo sapiens), 500 to 5000 nM; with BT474 cells (setting [1]) it was ≤ 50 nM; on HER2 kinase, ≤ 50 nM.

`CN(C)C/C=C/C(=O)N1CCOc2c1ccc1ncnc(Nc3ccc(OCc4cccs4)cc3)c21` [Example 64, (E)-4-(dimethylamino)-1-(10-((4-(thiophen-2-ylmethoxy)phenyl)amino)-2,3-dihydro-4H-[1,4]oxazino[2,3-f]quinazolin-4-yl)but-2-en-1-one]: the concentration for half-maximal inhibition (IC50) against EGFR kinase was 50 to 500 nM; with HCC827 cells (Homo sapiens), 50 to 500 nM; in the test on BT474 cells (setting [1]) it was ≤ 50 nM; against HER2 kinase it was ≤ 50 nM.

Turning to `CN(C)C/C=C/C(=O)N1CCOc2c1ccc1ncnc(Nc3ccc(OCc4nccs4)cc3)c21` [Example 65, (E)-4-(dimethylamino)-1-(10-((4-(thiazol-2-ylmethoxy)phenyl)amino)-2,3-dihydro-4H-[1,4]oxazino[2,3-f]quinazolin-4-yl)but-2-en-1-one], the IC50 at EGFR kinase was ≤ 50 nM; in the test with HCC827 cells (Homo sapiens), 50 to 500 nM; in the test with BT474 cells (setting [1]) it was ≤ 50 nM; against HER2 kinase it was ≤ 50 nM.

Take `CN(C)C/C=C/C(=O)N1CCOc2c1ccc1ncnc(Nc3ccc(SCc4ccccc4)cc3)c21` [Example 66, (E)-4-(dimethylamino)-1-(10-((4-(benzylthio)phenyl)amino)-2,3-dihydro-4H-[1,4]oxazino[2,3-f]quinazolin-4-yl)but-2-en-1-one]: the IC50 against EGFR kinase is ≤ 50 nM; in the test on HCC827 cells (Homo sapiens), 500 to 5000 nM; with BT474 cells (setting [1]), ≤ 50 nM; on HER2 kinase, ≤ 50 nM.

As for `COc1cc(Nc2ncnc3ccc4c(c23)OCCN4C(=O)/C=C/CN(C)C)ccc1OCc1cccc(F)c1` [Example 68, (E)-4-(dimethylamino)-1-(10-((4-((3-fluorobenzyl)oxy)-3-methoxyphenyl)amino)-2,3-dihydro-4H-[1,4]oxazino[2,3-f]quinazolin-4-yl)but-2-en-1-one], the concentration for half-maximal inhibition (IC50) was ≤ 50 nM against EGFR kinase, 500 to 5000 nM in the test with HCC827 cells (Homo sapiens), ≤ 50 nM in the test with BT474 cells (setting [1]) and ≤ 50 nM at HER2 kinase.

Take `CN(C)C/C=C/C(=O)N1CCOc2c1ccc1ncnc(Nc3ccc(OCc4cccc(F)c4)c(F)c3)c21` [Example 69, (E)-4-(dimethylamino)-1-(10-((4-((3-fluorobenzyl)oxy)-3-fluorophenyl)amino)-2,3-dihydro-4H-[1,4]oxazino[2,3-f]quinazolin-4-yl)but-2-en-1-one]: the concentration for half-maximal inhibition (IC50) was ≤ 50 nM against EGFR kinase, 500 to 5000 nM in the test on HCC827 cells (Homo sapiens), ≤ 50 nM with BT474 cells (setting [1]) and ≤ 50 nM on HER2 kinase.

Consider `Cc1ccc(F)c(Oc2ccc(Nc3ncnc4ccc5c(c34)OCCN5C(=O)/C=C/CN(C)C)cc2)c1` [Example 71, (E)-4-(dimethylamino)-1-(10-((4-(2-fluoro-5-methylphenoxy)phenyl)amino)-2,3-dihydro-4H-[1,4]oxazino[2,3-f]quinazolin-4-yl)but-2-en-1-one], for which the IC50 against EGFR kinase was ≤ 50 nM; with HCC827 cells (Homo sapiens) it was 500 to 5000 nM; in the test on BT474 cells (setting [1]) it was ≤ 50 nM; against HER2 kinase, ≤ 50 nM.

Take `CN(C)C/C=C/C(=O)N1CCOc2c1ccc1ncnc(Nc3ccc(Oc4cc(Cl)ccc4F)cc3)c21` [Example 72, (E)-4-(dimethylamino)-1-(10-((4-(5-chloro-2-fluorophenoxy)phenyl)amino)-2,3-dihydro-4H-[1,4]oxazino[2,3-f]quinazolin-4-yl)but-2-en-1-one]: the half-inhibitory concentration (IC50) is ≤ 50 nM at EGFR kinase, 50 to 500 nM with HCC827 cells (Homo sapiens), ≤ 50 nM in the test with BT474 cells (setting [1]) and ≤ 50 nM on HER2 kinase.

Take `CN(C)C/C=C/C(=O)N1CCOc2c1ccc1ncnc(Nc3ccc(Oc4cc(F)ccc4F)cc3)c21` [Example 73, (E)-4-(dimethylamino)-1-(10-((4-(2,5-difluorophenoxy)phenyl)amino)-2,3-dihydro-4H-[1,4]oxazino[2,3-f]quinazolin-4-yl)but-2-en-1-one]: the half-maximal inhibitory concentration (IC50) against EGFR kinase was 50 to 500 nM; with HCC827 cells (Homo sapiens), 500 to 5000 nM; in the test with BT474 cells (setting [1]), ≤ 50 nM; against HER2 kinase, ≤ 50 nM.

Consider `CC(Oc1ccc(Nc2ncnc3ccc4c(c23)OCCN4C(=O)/C=C/CN(C)C)cc1)c1cccc(F)c1` (centres unmarked) [Example 74, (E)-4-(dimethylamino)-1-(10-((4-(1-(3-fluorophenyl)ethoxy)phenyl)amino)-2,3-dihydro-4H-[1,4]oxazino[2,3-f]quinazolin-4-yl)but-2-en-1-one], for which the IC50 against EGFR kinase was 50 to 500 nM; in the test on HCC827 cells (Homo sapiens) it was 500 to 5000 nM; in the test on BT474 cells (setting [1]) it was ≤ 50 nM; on HER2 kinase it was ≤ 50 nM.

In the case of `CN(C)C/C=C/C(=O)N1CCOc2c1ccc1ncnc(Nc3ccc(OCc4cccnc4)cc3)c21` [Example 76, (E)-4-(dimethylamino)-1-(10-((4-(pyridin-3-ylmethoxy)phenyl)amino)-2,3-dihydro-4H-[1,4]oxazino[2,3-f]quinazolin-4-yl)but-2-en-1-one], the half-inhibitory concentration (IC50) was 500 to 5000 nM at EGFR kinase, 50 to 500 nM with HCC827 cells (Homo sapiens), ≤ 50 nM with BT474 cells (setting [1]) and ≤ 50 nM against HER2 kinase.

For `CN(C)C/C=C/C(=O)N1CCOc2c1ccc1ncnc(Nc3ccc(OCc4cccc(Cl)c4)cc3)c21` [Example 83, (E)-1-(10-((4-((3-chlorobenzyl)oxy)phenyl)amino)-2,3-dihydro-4H-[1,4]oxazino[2,3-f]quinazolin-4-yl)-4-(dimethylamino)but-2-en-1-one], the IC50 on EGFR kinase was ≤ 50 nM; in the test with HCC827 cells (Homo sapiens), 500 to 5000 nM; in the test with BT474 cells (setting [1]) it was ≤ 50 nM; against HER2 kinase, ≤ 50 nM.

With `O=C(/C=C/CN1CCCC1)N1CCOc2c1ccc1ncnc(Nc3ccc(Oc4ccccc4)cc3)c21` [Example 91, (E)-1-(10-((4-phenoxyphenyl)amino)-2,3-dihydro-4H-[1,4]oxazino[2,3-f]quinazolin-4-yl)-4-(pyrrolidin-1-yl)but-2-en-1-one], the IC50 at EGFR kinase was ≤ 50 nM; in the test with HCC827 cells (Homo sapiens), 500 to 5000 nM; in the test on BT474 cells (setting [1]), ≤ 50 nM; at HER2 kinase it was ≤ 50 nM.
